{
  "source": "PubChem BioAssay AID504839",
  "about": "(Johns Hopkins Ion Channel Center, 2011)",
  "molecular_target": "Potassium voltage-gated channel subfamily KQT member 2 (Rattus norvegicus) (UniProt O88943)",
  "sequence (O88943 whole entry, looked up)": "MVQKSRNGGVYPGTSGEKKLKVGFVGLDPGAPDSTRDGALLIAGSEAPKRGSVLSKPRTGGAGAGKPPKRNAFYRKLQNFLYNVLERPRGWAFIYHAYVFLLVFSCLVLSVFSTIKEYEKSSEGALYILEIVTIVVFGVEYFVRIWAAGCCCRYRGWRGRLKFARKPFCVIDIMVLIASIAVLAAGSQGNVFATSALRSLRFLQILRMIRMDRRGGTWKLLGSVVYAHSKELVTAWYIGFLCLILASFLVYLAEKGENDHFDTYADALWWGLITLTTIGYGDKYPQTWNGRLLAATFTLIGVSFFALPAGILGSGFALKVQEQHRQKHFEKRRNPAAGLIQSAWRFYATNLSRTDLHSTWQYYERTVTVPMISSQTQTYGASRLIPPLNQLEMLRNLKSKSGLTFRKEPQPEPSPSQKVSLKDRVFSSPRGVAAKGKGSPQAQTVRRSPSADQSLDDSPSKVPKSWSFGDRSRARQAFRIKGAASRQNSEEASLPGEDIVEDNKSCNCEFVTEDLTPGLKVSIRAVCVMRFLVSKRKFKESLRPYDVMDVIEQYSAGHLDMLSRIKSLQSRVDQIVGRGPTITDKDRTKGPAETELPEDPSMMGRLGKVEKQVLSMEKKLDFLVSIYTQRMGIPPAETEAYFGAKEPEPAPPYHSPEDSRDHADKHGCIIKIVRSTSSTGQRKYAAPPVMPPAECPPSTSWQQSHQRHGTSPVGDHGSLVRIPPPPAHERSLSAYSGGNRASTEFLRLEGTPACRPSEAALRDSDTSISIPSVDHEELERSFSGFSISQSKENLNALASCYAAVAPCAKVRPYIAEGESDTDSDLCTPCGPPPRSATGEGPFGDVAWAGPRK",
  "assay": "PubChem AID 504839",
  "settings": "KCNQ2-CHO cells, automated patch clamp current",
  "data": [
    {"smiles": "CCC(C(=O)Nc1ccccc1N1CCCC1)c1ccccc1", "note": "(stereo unspecified)", "values": [
      {"measurement": "IC50", "result": 160, "unit": "nM"}
    ]}
  ]
}
